Experimental data: PubChem BioAssay AID1963833 (Molecular Pharmacology Branch, DTP, NCI, 2024)

System: 883617-216-R-J1-PDC complex spheroid viability
Experiment: Anticancer human tumor 883617-216-R-J1-PDC patient-derived bladder carcinoma cell line growth inhibition [POLQ]
Conditions: for IC50: curve of first compound; for viability, T/C: stronger effect = lower value
How it was run: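 PDC + HUVEC + MSC complex spheroids; POLQ inhibitors ± partner drugs; top conc. at/near clinical Cmax, else 10 microM (SN-38 1 microM), half-log dilutions; 37 degrees C, 5% CO2.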

[1] = second compound 0.0316 µM, first compound 0.0316 µM
[2] = second compound 0.0316 µM, first compound 0.1 µM
[3] = second compound 0.0316 µM, first compound 0.316 µM
[4] = second compound 0.0316 µM, first compound 1 µM
[5] = second compound 0.0316 µM, first compound 3.16 µM
[6] = second compound 0.0316 µM, first compound 10 µM
[7] = second compound 0.1 µM, first compound 0.0316 µM
[8] = second compound 0.1 µM, first compound 0.1 µM
[9] = second compound 0.1 µM, first compound 0.316 µM
[10] = second compound 0.1 µM, first compound 1 µM
[11] = second compound 0.1 µM, first compound 3.16 µM
[12] = second compound 0.1 µM, first compound 10 µM
[13] = second compound 0.316 µM, first compound 0.0316 µM
[14] = second compound 0.316 µM, first compound 0.1 µM
[15] = second compound 0.316 µM, first compound 0.316 µM
[16] = second compound 0.316 µM, first compound 1 µM
[17] = second compound 0.316 µM, first compound 3.16 µM
[18] = second compound 0.316 µM, first compound 10 µM
[19] = second compound 1 µM, first compound 0.0316 µM
[20] = second compound 1 µM, first compound 0.1 µM
[21] = second compound 1 µM, first compound 0.316 µM
[22] = second compound 1 µM, first compound 1 µM
[23] = second compound 1 µM, first compound 3.16 µM
[24] = second compound 1 µM, first compound 10 µM
[25] = second compound 3.16 µM, first compound 0.0316 µM
[26] = second compound 3.16 µM, first compound 0.1 µM
[27] = second compound 3.16 µM, first compound 0.316 µM
[28] = second compound 3.16 µM, first compound 1 µM
[29] = second compound 3.16 µM, first compound 3.16 µM
[30] = second compound 3.16 µM, first compound 10 µM
[31] = second compound 10 µM, first compound 0.0316 µM
[32] = second compound 10 µM, first compound 0.1 µM
[33] = second compound 10 µM, first compound 0.316 µM
[34] = second compound 10 µM, first compound 1 µM
[35] = second compound 10 µM, first compound 3.16 µM
[36] = second compound 10 µM, first compound 10 µM
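Note: spheroids exposed to compounds for seven days before readout.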
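Throughout, for viability, T/C: 100% = DMSO vehicle control viability.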

With `CCc1cc2c(N3CCc4c(cc(Cn5ccnc5)cc4-c4cn(C)nc4C(F)(F)F)C3=O)ccnc2c(OC)n1` + Cc1cccc(N(C)C(=O)C2C(O)CCN2c2nc(C)cc(C(F)(F)F)c2C#N)c1 the IC50 (second compound 0.0316 µM) was > 10000 nM, the IC50 (second compound 0.1 µM) was > 10000 nM and the IC50 (second compound 0.316 µM) was 8040 nM. For the same compound, the IC50 (second compound 1 µM) was > 10000 nM, the IC50 (second compound 3.16 µM) was 8360 nM and the IC50 (second compound 10 µM) was 8040 nM. The viability, T/C [1] was 91.7%, the viability, T/C [2] was 103% and the viability, T/C [3] was 82.1%. The viability, T/C [4] was 82%, the viability, T/C [5] was 70% and the viability, T/C [6] was 53.5%. It also gave a viability, T/C [7] of 93%, a viability, T/C [8] of 107% and a viability, T/C [9] of 84.2%. For the same compound, the viability, T/C [10] was 96.6%, the viability, T/C [11] was 73.4% and the viability, T/C [12] was 50.7%. It also gave a viability, T/C [13] of 102%, a viability, T/C [14] of 104% and a viability, T/C [15] of 101%. For the same compound, the viability, T/C [16] was 98%, the viability, T/C [17] was 76.6% and the viability, T/C [18] was 43.7%. The viability, T/C [19] was 98.4%, the viability, T/C [20] was 101% and the viability, T/C [21] was 87.8%. The viability, T/C [22] was 94.4%, the viability, T/C [23] was 68.2% and the viability, T/C [24] was 61.1%. The viability, T/C [25] was 99.6%, the viability, T/C [26] was 103% and the viability, T/C [27] was 87.7%. For the same compound, the viability, T/C [28] was 86.9%, the viability, T/C [29] was 66.1% and the viability, T/C [30] was 47%. The viability, T/C [31] was 115%, the viability, T/C [32] was 104% and the viability, T/C [33] was 88.3%. For the same compound, the viability, T/C [34] was 92.9%, the viability, T/C [35] was 76.6% and the viability, T/C [36] was 42.6%.
In the case of `COc1cccc2c1C(=O)c1c(O)c3c(c(O)c1C2=O)CC(O)(C(=O)CO)CC3OC1CC(N)C(O)C(C)O1` (centres undefined) + Nc1ccc(C#CCN(C(=O)Cc2ncc(C(F)(F)F)cc2C(F)(F)F)c2ccc(F)cc2)nn1, the IC50 (second compound 0.0316 µM) is reported as 440 nM, the IC50 (second compound 0.1 µM) is reported as 382 nM and the IC50 (second compound 0.316 µM) is reported as 341 nM. The IC50 (second compound 1 µM) was 398 nM, the IC50 (second compound 3.16 µM) was 371 nM and the IC50 (second compound 10 µM) was 419 nM. It also gave a viability, T/C [1] of 76.5%, a viability, T/C [2] of 67.2% and a viability, T/C [3] of 62.8%. For the same compound, the viability, T/C [4] was 19.8%, the viability, T/C [5] was 0.23% and the viability, T/C [6] was 0.18%. It also gave a viability, T/C [7] of 71.3%, a viability, T/C [8] of 74.7% and a viability, T/C [9] of 55.2%. For the same compound, the viability, T/C [10] was 18.8%, the viability, T/C [11] was 0.24% and the viability, T/C [12] was 0.17%. For the same compound, the viability, T/C [13] was 79.3%, the viability, T/C [14] was 72.2% and the viability, T/C [15] was 52.9%. For the same compound, the viability, T/C [16] was 16.7%, the viability, T/C [17] was 0.21% and the viability, T/C [18] was 0.71%. It also gave a viability, T/C [19] of 77.3%, a viability, T/C [20] of 64.2% and a viability, T/C [21] of 59.7%. It also gave a viability, T/C [22] of 15.4%, a viability, T/C [23] of 0.76% and a viability, T/C [24] of 0.21%. For the same compound, the viability, T/C [25] was 78.5%, the viability, T/C [26] was 68.6% and the viability, T/C [27] was 56.6%. The viability, T/C [28] was 15.3%, the viability, T/C [29] was 0.47% and the viability, T/C [30] was 0.94%. It also gave a viability, T/C [31] of 81.8%, a viability, T/C [32] of 63% and a viability, T/C [33] of 62.6%. For the same compound, the viability, T/C [34] was 14.5%, the viability, T/C [35] was 0.53% and the viability, T/C [36] was 0.36%.
